Measured values from patent publication US8853215B2, “Derivatives of N-acyl-N′-phenylpiperazine useful (inter alia) for the prophylaxis or treatment of diabetes” (Takeda Pharmaceutical Company Limited, priority 2009, dated 2014).

Tests used:
human RBP4 = human RBP4 (Homo sapiens (Human), UniProt P02753); experiment: Binding assay by Retinol-RBP4-TTR ELISA; details: at 10 μM compound; read-out: human RBP4 binding inhibitory activity(% at 10 μM)
In short: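 Biotinylated human TTR was captured on streptavidin plates, then His-tagged human RBP4 was added with compound premixed with 50 nM retinol (8 doses). Binding ran 2 h at room temperature in 50 mM Tris-HCl, 150 mM NaCl, 0.005% Tween 20, 1 mM DTT, 0.1% BSA, read by luminescence. Inhibition was scaled between retinol+DMSO and retinol-free controls, and IC50 fitted.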

CD (SD) rats = experiment: Repeated drug administration test in CD (SD) rats, retinol in plasma and retina by HPLC; type: in vivo
Description: The effect of the compound on retinol level in retina was evaluated using the animal model shown below.
(§1) Male CD (SD) rats were purchased from Charles River (Japan) and maintained on normal diet (CR-LPF) (Oriental Yeast Co., Ltd.) and tap water. Animals were housed in a temperature-controlled room adjusted to a 12-hour light/12-hour dark cycle beginning at 7:00 and 19:00, respectively. All procedures were conducted according to the experimental animal care use committee of Takeda Pharmaceutical Company.
A compound was suspended in 0.5% (w/v) methylcellulose in water and given orally to rats at a volume of 10 mL/kg of body weight. Drug administration was started at 6 weeks of age and a drug (10 mg/kg) was administered once a day for 14 days. After repeated administration, blood samples were obtained from tail vein. Rats were dissected under anesthesia with ethyl ether and eyes were isolated.
Retina was isolated from the eye of the rats mentioned 5B with stereoscopic microscope and sonicated. Retinol was extracted into n-hexane and samples were taken to dryness under nitrogen gas. Samples residues were resuspended into 2-propanol and analyzed by HPLC. Chromatographic separations were achieved on TSKgel ODS120T Column (4.6×250 mm) (Tosoh) using Alliance series reverse phase HPLC (Waters). The mobile phase contained acetonitrile/methanol (3/1) at 4° C. and detected at UV 325 nm. Retinol in retina was corrected by total protein detected by BCA protein assay (Pierce).

RBP4 = RBP4 (Rattus norvegicus (Rat), UniProt P04916); experiment: Single administration test in Wistar fatty rats, plasma RBP4 by ELISA; type: in vivo; details: male Wistar fatty rats, 10 mg/kg oral single dose, mean±SD
Description: The action of the compounds of the present invention to lower plasma RBP4 level was evaluated using the animal model shown below.
as §1, with “Wistar fatty” for “CD (SD)”, “rats (fa/fa)” for “rats”, “bred in Takeda Pharmaceutical Company Limited” for “purchased from Charles River (Japan)”, “(CE2, CLAE Japan, Inc.)” for “(CR-LPF) (Oriental Yeast Co., Ltd.)”
Male 13-43-week-old Wistar fatty rats were divided into groups randomly. Compounds were suspended in 0.5% (w/v) methylcellulose in water and given orally to Wistar fatty rats at a dose of 10 mg/10 mL/kg of body weight (3-5 rats per group). Blood samples were obtained from tail vein with sodium heparin as an anticoagulant at time 0 hr (just before the administration), 4 hr, 7 hr, and 24 hr after the administration, followed by plasma separation by centrifugation. Plasma RBP4 levels were measured by enzyme-linked immunosorbent assay described in the following section.
Plasma samples were analyzed in duplicate for RBP4 by an enzyme-linked immunosorbent assay. Mouse recombinant RBP4 (Takeda Pharmaceutical Company Limited) was used as standards, and the assay range was 0.313-20 ng/ml. Samples were diluted 10,000-fold with phosphate-buffered saline (PBS) (Sigma) containing 10% (w/v) BlockAce (Dainippon Sumitomo Pharma Co., Ltd). Rabbit anti-RBP4 polyclonal antibody (100 μL/well of 50 μg/mL, Hokudo Co, Ltd) was incubated in a 96-well plate (Nalge Nunc International K.K.) for overnight at 4° C. Subsequently, the plates were washed with PBS-T (Wako Pure Chemical Industries, Ltd.) and blocked with PBS containing 25% BlockAce for 1 hr at room temperature. After another washing with PBS-T, samples and standards were applied to the well, and the plates were incubated for 2 hr at room temperature. After a washing the wells, peroxidase-labeled (Dojindo Laboratories) anti-RBP4 (100 μL/well) was added to the wells, and then the plates were incubated for 1 hr at room temperature. After a final washing with PBS-T, substrate solution 3,3,5,5-tetramethylbenzidine (Sigma) was added to the wells, and the plates were placed in the dark for 5-20 min at room temperature. The reaction was stopped with 0.5 M sulphuric acid and the optical density was measured with a spectrophotometer at 450 nm. The changes in plasma RBP4 levels were expressed as % of initial/Control. All data are presented as mean±SD.

Compound: O=C(O)CCc1nc(-c2cc(C(F)(F)F)cc(C(F)(F)F)c2)co1 [Reference Example 26, 3-{4-[3,5-bis(trifluoromethyl)phenyl]-1,3-oxazol-2-yl}propanoic acid, reference compound]
- inhibition at 10 µM (human RBP4): 100%
- effect on retinol in plasma and retina (in words) (CD (SD) rats; CD (SD) rats, 10 mg/kg, 14 days repeated administration): decreased retinol in plasma and retina significantly
- Retinol in retina (CD (SD) rats; male CD (SD) rats, 10 mg/kg oral once a day for 14 days, corrected by total protein, mean±SD): 0.06 ± 0.01 µg/mg
- Retinol in plasma (μg/mL) (CD (SD) rats; male CD (SD) rats, 10 mg/kg oral once a day for 14 days, mean±SD): Not detected
- RBP4 (% of initial/Control) 0 hr (RBP4; 0 hr (just before the administration)): 100 ± 22.9 % of initial/Control
- RBP4 (% of initial/Control) 4 hr (RBP4; 4 hr after administration): 34.7 ± 13.7 % of initial/Control
- RBP4 (% of initial/Control) 7 hr (RBP4; 7 hr after administration): 24.9 ± 10.6 % of initial/Control
- RBP4 (% of initial/Control) 24 hr (RBP4; 24 hr after administration): 9.2 ± 6.1 % of initial/Control
